Reference: patent publication EP2331496B1, “USE OF AN N-ACYL AMINO ACID SELECTED FROM AMONG N-PALMITOYL ALANINE, N-PALMITOYL GLYCINE, AND N-PALMITOYL ISOLEUCINE AS A REGULATING ACTIVE AGENT OF THE GENETIC PROFILE OF SENESCENT REPLICATING FIBROBLASTS OF THE HUMAN SKIN DERMIS” (Societe D'Exploitation De Produits Pour Les Industries …, priority 2008, dated 2010)

What was measured:
[1] = test system: gène codant la tenascine C (TNC); test: Q-PCR gene expression in replicative senescent human dermal fibroblasts: TNC; type: cell-based, humains; conditions: aged fibroblasts from adult dermis (16 passages), cultured 96 h with the substance, compared with young cells (8 passages, 100 %)
Source text: (§1) Des fibroblastes humains normaux issus de derme adulte et vieillis de manière accélérée (16 passages en culture) ou non (8 passages en culture) ont été cultivés en présence ou non de chacun des quatre N-acyl amino acides suivants : N-palmitoyl glycine, N-palmitoyl alanine, N-palmitoyl isoleucine et N-cocoyl alanine pendant 96 heures. A la fin de l'expérience, les cellules ont été lavées et extraites pour l'analyse génomique. Cette dernière a été réalisée par Q-PCR ("Quantitative Polymerase Chain Reaction").
(§2) Pour chacun des diagrammes de ces figures, les résultats sont exprimés en pourcentage de variation des niveaux relatifs d'expression génique par rapport aux cellules jeunes (100 %), les pourcentages en haut des histogrammes expriment les pourcentages de restauration et les abréviations indiquées sont conformes à la nomenclature officielle Genbank.

gène codant la vimentine = test: Q-PCR gene expression in replicative senescent human dermal fibroblasts: vimentine; type: cell-based, humains; conditions: aged fibroblasts from adult dermis (16 passages), cultured 96 h with the substance, compared with young cells (8 passages, 100 %)
Source text: as §1, §2

[2] = test system: sujets caucasiens âgés de 45 ans à 76 ans et présentant des rides de vieillissement cutané; test: In vivo anti-wrinkle efficacy, topical gel-cream on the eye contour (crow's feet); set-up: species or system humain; conditions: 1% gel-cream, topical twice daily on the face, crow's feet zone, 42 days, about 20 volunteers/group; results expressed relative to a commercial reference lipopeptide product
Source text: Les N-acyl amino acides testés ont été formulés en gel-crème à 1% dans le couple d'émulsionnants MONTANOV™ 202, MONTANOV™ 82, l'épaississant SEPIPLUS™ 400 ainsi que le MONTANOX™ 60D, afin d'effectuer des applications topiques biquotidiennes sur le visage de sujets caucasiens âgés de 45 ans à 76 ans et présentant des rides de vieillissement cutané (environ 20 volontaires/groupe). Un produit lipopeptidique commercial de référence a également été testé selon le même protocole expérimental.
La région anatomique choisie pour cette étude était la zone du contour de l'oeil (patte d'oie).
La durée du traitement a été de 42 jours.
Les résultats ont été exprimés en termes de surface ridée totale et de nombre de rides par rapport à un produit lipopeptidique commercial de référence.

[3] = test system: gène codant la pleiotrophine (PTN); test: Q-PCR gene expression in replicative senescent human dermal fibroblasts: PTN; type: cell-based, humains; conditions: aged fibroblasts from adult dermis (16 passages), cultured 96 h with the substance, compared with young cells (8 passages, 100 %)
Source text: as §1, §2

[4] = test system: gène codant la Serpine 2B; test: Q-PCR gene expression in replicative senescent human dermal fibroblasts: Serpine 2B; type: cell-based, humains; conditions: aged fibroblasts from adult dermis (16 passages), cultured 96 h with the substance, compared with young cells (8 passages, 100 %)
Source text: as §1, §2

[5] = test system: gène codant le nidogène (NID); test: Q-PCR gene expression in replicative senescent human dermal fibroblasts: NID; type: cell-based, humains; conditions: aged fibroblasts from adult dermis (16 passages), cultured 96 h with the substance, compared with young cells (8 passages, 100 %)
Source text: as §1, §2

[6] = test system: gène codant la dermatopontine (DPT); test: Q-PCR gene expression in replicative senescent human dermal fibroblasts: DPT; type: cell-based, humains; conditions: aged fibroblasts from adult dermis (16 passages), cultured 96 h with the substance, compared with young cells (8 passages, 100 %)
Source text: as §1, §2

[7] = test system: gène codant le collagène de type I (COL1A1); test: Q-PCR gene expression in replicative senescent human dermal fibroblasts: COL1A1; type: cell-based, humains; conditions: aged fibroblasts from adult dermis (16 passages), cultured 96 h with the substance, compared with young cells (8 passages, 100 %)
Source text: as §1, §2

[8] = test system: gène codant le biglycane (BGN); test: Q-PCR gene expression in replicative senescent human dermal fibroblasts: BGN; type: cell-based, humains; conditions: aged fibroblasts from adult dermis (16 passages), cultured 96 h with the substance, compared with young cells (8 passages, 100 %)
Source text: as §1, §2

[9] = test system: gène codant la cytokine pro-inflammatoire IL-6; test: Q-PCR gene expression in replicative senescent human dermal fibroblasts: IL-6; type: cell-based, humains; conditions: aged fibroblasts from adult dermis (16 passages), cultured 96 h with the substance, compared with young cells (8 passages, 100 %)
Source text: as §1, §2

[10] = test system: gène codant la protéine de choc thermique (HSP 90A); test: Q-PCR gene expression in replicative senescent human dermal fibroblasts: HSP 90A; type: cell-based, humains; conditions: aged fibroblasts from adult dermis (16 passages), cultured 96 h with the substance, compared with young cells (8 passages, 100 %)
Source text: as §1, §2

[11] = test system: gène codant la Serpine 1H (HSP47); test: Q-PCR gene expression in replicative senescent human dermal fibroblasts: Serpine 1H (HSP47); type: cell-based, humains; conditions: aged fibroblasts from adult dermis (16 passages), cultured 96 h with the substance, compared with young cells (8 passages, 100 %)
Source text: as §1, §2

[12] = test system: gène codant la métallo protéinase MMP-1; test: Q-PCR gene expression in replicative senescent human dermal fibroblasts: MMP-1; type: cell-based, humains; conditions: aged fibroblasts from adult dermis (16 passages), cultured 96 h with the substance, compared with young cells (8 passages, 100 %)
Source text: as §1, §2

niveau d'expression du gène codant la métallo protéinase MMP-1 [12]	Structure (SMILES)	niveau d'expression du gène codant la tenascine C (TNC) [1]	niveau d'expression du gène codant la vimentine (gène codant la vimentine)	diminution du nombre de rides [2]	niveau d'expression du gène codant la pleiotrophine (PTN) [3]	niveau d'expression du gène codant la Serpine 2B [4]	niveau d'expression du gène codant le nidogène (NID) [5]	niveau d'expression du gène codant la dermatopontine (DPT) [6]	niveau d'expression du gène codant le collagène de type I (COL1A1) [7]	niveau d'expression du gène codant le biglycane (BGN) [8]	niveau d'expression du gène codant la cytokine pro-inflammatoire IL-6 [9]	niveau d'expression du gène codant la protéine de choc thermique (HSP 90A) [10]	niveau d'expression du gène codant la Serpine 1H (HSP47) [11]	diminution de la surface ridée totale [2]
–	CCCCCCCCCCCCCCCC(=O)N[C@H](C(=O)O)[C@@H](C)CC [N-palmitoyl isoleucine]	augmentation du niveau d'expression	augmentation du niveau d'expression	40%	augmentation du niveau d'expression	diminution du niveau d'expression	augmentation du niveau d'expression	augmentation du niveau d'expression	augmentation du niveau d'expression	augmentation du niveau d'expression	diminution du niveau d'expression	augmentation du niveau d'expression	augmentation du niveau d'expression	–
diminution du niveau d'expression	CCCCCCCCCCCCCCCC(=O)N[C@@H](C)C(=O)O [N-palmitoyl alanine]	–	–	–	–	–	–	augmentation du niveau d'expression	augmentation du niveau d'expression	–	diminution du niveau d'expression	–	–	15%
diminution du niveau d'expression	CCCCCCCCCCCCCCCC(=O)NCC(=O)O [N-palmitoyl glycine]	augmentation du niveau d'expression	–	35%	augmentation du niveau d'expression	–	augmentation du niveau d'expression	augmentation du niveau d'expression	–	–	diminution du niveau d'expression	augmentation du niveau d'expression	–	–
